From patent US20250144067A1, “PERSONALIZED STARVATION THERAPY FOR CANCER” (Faeth Therapeutics, Inc., priority 2021, published 2025)
Where a name gives a salt, the structure may show the parent alone.

Key:
[1] = tested on: NCI-H292 lung cancer cells; assay: FDA drug screening, complete media vs cholesterol-free media without statin (TABLE 1); format: cell-based, human
[2] = tested on: NCI-H292 lung cancer cells; assay: FDA drug screening, complete media vs cholesterol-free media with simvastatin (TABLE 2); format: cell-based, human; conditions: for Cholesterol-free media + simvastatin (0.04 μM) / Complete Media: NCI-H292 cells
[3] = Complete minus Cholesterol-free, greater than 0 enhanced anti-cancer activity, about 0 neutral, below 0 antagonist
[4] = NCI-H292 cells, FDA drug library screen, cholesterol-free media without statin
[5] = NCI-H292 cells, FDA drug library screen, complete media
[6] = FDA library drug in cholesterol-free media with simvastatin 0.04 μM
[7] = FDA library drug in complete media
[8] = complete media vs cholesterol-free media + simvastatin (0.04 μM), >0 enhanced anti-cancer activity, about 0 neutral, <0 antagonist
[9] = FDA drug library screen, cholesterol-free media with simvastatin 0.04 μM
[10] = FDA drug library screen, complete media
[11] = complete media minus cholesterol-free media + simvastatin, >0 enhanced anti-cancer activity, about 0 neutral, <0 antagonist
[12] = Complete minus Cholesterol-free, >0 enhanced anti-cancer activity, about 0 neutral, <0 antagonist
[13] = NCI-H292 cells, cholesterol-free media without statin
[14] = NCI-H292 cells, cholesterol-free media without statin, FDA drug library screen
[15] = NCI-H292 cells, complete media, FDA drug library screen
[16] = complete vs cholesterol-free media, >0 enhanced anti-cancer activity, about 0 neutral, <0 antagonist
[17] = Complete minus Cholesterol-free, greater than 0 enhanced anti-cancer activity, about 0 neutral, below 0 antagonists
[18] = NCI-H292 cells in cholesterol-free media without statin
[19] = NCI-H292 cells in complete media

**Q.** What does the source list for `NC(N)=Nc1nc(CSCCC(N)=NS(N)(=O)=O)cs1` [Famotidine]?
**A.** Difference [1, 3]: −0.07; Cholesterol-free [1, 4]: 1.016; Complete [1, 5]: 0.9424; Cholesterol-free media + simvastatin (0.04 μM) [2, 6]: 1.666; Complete Media [2, 7]: 1.298; Difference [2, 8]: −0.37

**Q.** How did the Difference [1, 3] turn out when `CCC(Cc1c(I)cc(I)c(N)c1I)C(=O)O` (centres unmarked) [Iopanoic acid] was run?
**A.** −0.10

**Q.** And the Cholesterol-free [1, 4]?
**A.** 1.02

**Q.** What about the Complete [1, 5] of the same compound?
**A.** 0.9191

**Q.** And the “Cholesterol-free media + simvastatin (0.04 μM)” value [2, 9]?
**A.** 1.115

**Q.** What about the “Complete Media” value [2, 10] of the same compound?
**A.** 1.353

**Q.** What about the Difference [2, 11] of the same compound?
**A.** 0.24

**Q.** For Carbetapentane (citrate), which Difference [1, 12] is on record?
**A.** −0.21

**Q.** What about the Cholesterol-free [1, 13] of the same compound?
**A.** 1.181

**Q.** And the Complete ([1]; NCI-H292 cells, complete media)?
**A.** 0.9736

**Q.** What about the “Cholesterol-free media + simvastatin (0.04 μM)” value [2, 9] of the same compound?
**A.** 0.8092

**Q.** And the “Complete Media” value [2, 10]?
**A.** 1.195

**Q.** What about the Difference [2, 11] of the same compound?
**A.** 0.39

**Q.** For Salbutamol (hemisulfate), which Difference [1, 3] is on record?
**A.** −0.13

**Q.** And the Cholesterol-free [1, 4]?
**A.** 1.595

**Q.** What about the Complete [1, 5] of the same compound?
**A.** 1.464

**Q.** And the “Cholesterol-free media + simvastatin (0.04 μM)” value [2, 6]?
**A.** 2.036

**Q.** And the “Complete Media” value [2, 7]?
**A.** 1.453

**Q.** What about the Difference [2, 8] of the same compound?
**A.** −0.58

**Q.** For `O=C(O)c1cccnc1Nc1cccc(C(F)(F)F)c1` [Niflumic acid], which Cholesterol-free [1, 14] is on record?
**A.** 0.872

**Q.** What about the Complete [1, 15] of the same compound?
**A.** 1.486

**Q.** And the Difference [1, 16]?
**A.** 0.61

**Q.** What about the “Cholesterol-free media + simvastatin (0.04 μM)” value [2, 6] of the same compound?
**A.** 0.9955

**Q.** What about the “Complete Media” value [2, 7] of the same compound?
**A.** 0.2879

**Q.** And the Difference [2, 8]?
**A.** −0.71

**Q.** How did the Difference [1, 12] turn out when `CSCC1CN(/N=C/c2ccc([N+](=O)[O-])o2)C(=O)O1` (centres unmarked) [Nifuratel] was run?
**A.** −0.23

**Q.** What about the Cholesterol-free [1, 13] of the same compound?
**A.** 1.253

**Q.** What about the Complete ([1]; NCI-H292 cells, complete media) of the same compound?
**A.** 1.019

**Q.** And the “Cholesterol-free media + simvastatin (0.04 μM)” value [2, 6]?
**A.** 1.397

**Q.** And the “Complete Media” value [2, 7]?
**A.** 1.12

**Q.** What about the Difference [2, 8] of the same compound?
**A.** −0.28

**Q.** For `Cc1c(C(C)C)c(=O)n(-c2ccccc2)n1C` [Propyphenazone], which Difference [1, 3] is on record?
**A.** −0.12

**Q.** And the Cholesterol-free [1, 4]?
**A.** 1.128

**Q.** What about the Complete [1, 5] of the same compound?
**A.** 1.005

**Q.** And the “Cholesterol-free media + simvastatin (0.04 μM)” value [2, 9]?
**A.** 2.378

**Q.** What about the Difference ([2]; complete media minus cholesterol-free media + simvastatin (0.04 μM), >0 enhanced anti-cancer activity, about 0 neutral, <0 antagonist) of the same compound?
**A.** −1.31

**Q.** Which results are given for `COc1c(N2CCNC(C)C2)c(F)cc2c(=O)c(C(=O)O)cn(C3CC3)c12` (centres unmarked) [Gatifloxacin (hydrochloride)]?
**A.** Difference [1, 3]: −0.09; Cholesterol-free [1, 4]: 1.038; Complete [1, 5]: 0.9512; Cholesterol-free media + simvastatin (0.04 μM) [2, 9]: 0.9302; Complete Media [2, 10]: 0.7736; Difference [2, 8]: −0.16

**Q.** Which Difference [1, 12] does the source give for `O=C(Nc1c(Cl)cncc1Cl)c1ccc(OC(F)F)c(OCC2CC2)c1` [Roflumilast] here?
**A.** −0.06

**Q.** What about the Cholesterol-free [1, 14] of the same compound?
**A.** 0.9495

**Q.** What about the Complete [1, 15] of the same compound?
**A.** 0.8928

**Q.** And the “Cholesterol-free media + simvastatin (0.04 μM)” value [2, 6]?
**A.** 1.607

**Q.** And the “Complete Media” value [2, 7]?
**A.** 0.8972

**Q.** And the Difference [2, 8]?
**A.** −0.71

**Q.** Which results are given for `CS(=O)(=O)c1ccc([C@@H](O)[C@@H](CF)NC(=O)C(Cl)Cl)cc1` [Florfenicol]?
**A.** Difference [1, 3]: −0.13; Cholesterol-free [1, 4]: 0.8542; Complete [1, 5]: 0.7262; Cholesterol-free media + simvastatin (0.04 μM) [2, 9]: 1.137; Complete Media [2, 10]: 0.997; Difference [2, 8]: −0.14

**Q.** Which results are given for `CC[C@]12CCCN3CCc4c(n(c5ccccc45)C(=O)C1)[C@@H]32` [Vinburnine]?
**A.** Cholesterol-free [1, 14]: 0.8229; Complete [1, 15]: 1.424; Difference [1, 16]: 0.60; Cholesterol-free media + simvastatin (0.04 μM) [2, 9]: 1.049; Complete Media [2, 10]: 1.235; Difference [2, 11]: 0.19

**Q.** For `O=C(NC(Cc1cc(=O)[nH]c2ccccc12)C(=O)O)c1ccc(Cl)cc1` (centres unmarked) [Rebamipide], which Difference [1, 17] is on record?
**A.** −0.60

**Q.** And the Cholesterol-free [1, 18]?
**A.** 1.735

**Q.** What about the Complete [1, 19] of the same compound?
**A.** 1.132

**Q.** And the “Cholesterol-free media + simvastatin (0.04 μM)” value [2, 9]?
**A.** 1.344

**Q.** And the “Complete Media” value [2, 10]?
**A.** 1.19

**Q.** And the Difference [2, 8]?
**A.** −0.15

**Q.** What does the source list for `CC(O)C(=O)O.CCOc1ccc2nc3cc(N)ccc3c(N)c2c1` [Ethacridine (lactate)]?
**A.** Difference ([1]; Complete minus Cholesterol-free, […]): −0.28; Cholesterol-free [1, 13]: 0.3206; Complete ([1]; NCI-H292 cells, complete media): 0.04483; Cholesterol-free media + simvastatin (0.04 μM) [2, 9]: 0.2653; Complete Media [2, 10]: 0.1668; Difference ([2]; complete media vs cholesterol-free media + simvastatin (0.04 μM), […]): −0.10

**Q.** What does the source list for `CC[C@@H]([C@H](C)O)n1ncn(-c2ccc(N3CCN(c4ccc(OC[C@@H]5CO[C@@](Cn6cncn6)(c6ccc(F)cc6F)C5)cc4)CC3)cc2)c1=O` [Posaconazole]?
**A.** Difference [1, 17]: −0.60; Cholesterol-free [1, 18]: 1.481; Complete [1, 19]: 0.8852; Cholesterol-free media + simvastatin (0.04 μM) [2, 9]: 1.5; Complete Media [2, 10]: 1.904; Difference [2, 11]: 0.40

**Q.** With `FC(F)(F)c1ccc(CNc2ccc(Cc3c[nH]c4ncc(Cl)cc34)cn2)cn1` [Pexidartinib (hydrochloride)] as the compound, how does the Cholesterol-free [1, 13] read?
**A.** 1.204

**Q.** What about the Complete ([1]; NCI-H292 cells, complete media) of the same compound?
**A.** 0.7514

**Q.** What about the Difference ([1]; complete vs cholesterol-free media, greater than 0 enhanced anti-cancer activity, about 0 neutral, below 0 antagonists) of the same compound?
**A.** −0.45

**Q.** What about the “Cholesterol-free media + simvastatin (0.04 μM)” value [2, 9] of the same compound?
**A.** 1.136

**Q.** What about the “Complete Media” value [2, 10] of the same compound?
**A.** 1.002

**Q.** What about the Difference [2, 8] of the same compound?
**A.** −0.13
